Values of other authors as cited in patent US12006297B2, “Antibacterial activity of functionalized dihydropyrimidines” (WiSys Technology Foundation, Inc., priority 2021, dated 2024).

What was measured:
MRSA = conditions: versus oxacillin and erythromycin
DHFR = DHFR (Staphylococcus aureus, UniProt P0A017)
DHFR, sequence (P0A017 whole entry): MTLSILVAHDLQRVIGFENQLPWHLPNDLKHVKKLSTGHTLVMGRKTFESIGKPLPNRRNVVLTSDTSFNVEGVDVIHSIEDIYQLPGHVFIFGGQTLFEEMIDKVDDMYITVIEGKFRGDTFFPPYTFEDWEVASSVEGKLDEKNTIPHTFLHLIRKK

Compound: COc1cc(Cc2cnc(N)nc2N)c2c(c1OC)OC(C1CC1)C=C2 (racemic) [Iclaprim]
- side effects (skin infections; clinical trials): mild to moderate side effects
- efficacy versus vancomycin (skin infections; control of skin infections, phase 2 and 3 clinical trials): non-inferiority

Compound: CCOC(=O)C1=C(CC)NC(N)=NC1c1cc(Cl)cc(Cl)c1O (stereo not shown) [HAK-22, emmacin]
- MRSA growth inhibition compared with approved antibiotics (MRSA): inhibiting the growth of MRSA at concentrations lower than approved antibiotics
- mechanism of DHFR inhibition (DHFR): unique allosteric uncompetitive mechanism
